ChEMBL document CHEMBL1909046, “DrugMatrix in vitro pharmacology data”

Legend:
[1] = molecular target: C-C chemokine receptor type 5 (Homo sapiens, UniProt P51681); format: cell membranes, HEK293, Membrane; conditions: hek293; note: in other assays of this panel Not Active means under 50% inhibition at 10 µM
[2] = DRUGMATRIX: GABAA, Flunitrazepam, Central radioligand binding (ligand: [3H] Flunitrazepam); format: cell membranes, Rattus norvegicus, Wistar, Brain, Membrane; conditions: Not Active = under 50% inhibition at 10 µM
[3] = molecular target: T1, Neuropeptide Y receptor type 2 (Homo sapiens, UniProt P49146); format: cell membranes, Membrane; conditions: kan-ts; note: in other assays of this panel Not Active means under 50% inhibition at 10 µM
T1 sequence (P49146 whole entry): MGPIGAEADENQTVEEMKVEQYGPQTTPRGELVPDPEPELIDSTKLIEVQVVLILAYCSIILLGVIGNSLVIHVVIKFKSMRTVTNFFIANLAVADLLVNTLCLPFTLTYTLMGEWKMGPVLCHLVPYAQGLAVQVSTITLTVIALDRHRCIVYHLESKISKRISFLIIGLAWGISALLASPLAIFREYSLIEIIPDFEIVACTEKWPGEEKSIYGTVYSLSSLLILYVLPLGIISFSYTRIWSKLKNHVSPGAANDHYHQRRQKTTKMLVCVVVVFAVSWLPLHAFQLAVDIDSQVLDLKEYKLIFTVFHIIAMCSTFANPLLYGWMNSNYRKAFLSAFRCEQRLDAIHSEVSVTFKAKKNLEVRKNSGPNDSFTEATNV

[4] = molecular target: T2, Neuropeptide Y receptor type 1 (Homo sapiens, UniProt P25929); format: cell membranes, Membrane; conditions: sk-n-mc; note: in other assays of this panel Not Active means under 50% inhibition at 10 µM
T2 sequence (P25929 whole entry): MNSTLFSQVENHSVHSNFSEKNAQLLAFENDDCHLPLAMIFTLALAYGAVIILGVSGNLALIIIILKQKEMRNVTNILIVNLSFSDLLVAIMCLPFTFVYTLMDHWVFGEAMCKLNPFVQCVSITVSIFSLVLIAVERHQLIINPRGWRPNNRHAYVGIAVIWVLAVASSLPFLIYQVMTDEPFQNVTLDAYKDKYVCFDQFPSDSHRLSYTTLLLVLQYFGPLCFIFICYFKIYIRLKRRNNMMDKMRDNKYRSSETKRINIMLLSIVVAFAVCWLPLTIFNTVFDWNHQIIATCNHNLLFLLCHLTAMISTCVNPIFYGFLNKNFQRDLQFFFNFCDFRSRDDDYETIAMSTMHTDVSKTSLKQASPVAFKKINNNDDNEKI

Cannabinoid receptor 1 = Cannabinoid receptor 1 (Homo sapiens, UniProt P21554); format: cell membranes, Chem-1, Membrane; conditions: chem-1; note: in other assays of this panel Not Active means under 50% inhibition at 10 µM
[5] = molecular target: T3, C-C chemokine receptor type 4 (Homo sapiens, UniProt P51679); format: cell membranes, Membrane; conditions: chem-1; note: in other assays of this panel Not Active means under 50% inhibition at 10 µM
T3 sequence (P51679 whole entry): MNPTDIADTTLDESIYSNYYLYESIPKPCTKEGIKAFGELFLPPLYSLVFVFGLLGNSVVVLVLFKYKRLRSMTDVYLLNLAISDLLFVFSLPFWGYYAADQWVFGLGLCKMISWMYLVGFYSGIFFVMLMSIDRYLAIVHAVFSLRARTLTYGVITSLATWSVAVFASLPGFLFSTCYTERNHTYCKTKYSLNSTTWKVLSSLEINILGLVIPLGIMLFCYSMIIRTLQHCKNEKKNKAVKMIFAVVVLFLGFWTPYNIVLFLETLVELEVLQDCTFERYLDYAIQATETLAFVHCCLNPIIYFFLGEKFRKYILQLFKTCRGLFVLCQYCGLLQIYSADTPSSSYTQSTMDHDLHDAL

[6] = molecular target: Aldo-keto reductase family 1 member B1 (Rattus norvegicus, UniProt P07943); experiment: biochemical; format: tissue-based, Lens of camera-type eye
[7] = molecular target: T4, Polyunsaturated fatty acid lipoxygenase ALOX15 (Oryctolagus cuniculus, UniProt P12530); experiment: biochemical; format: tissue-based, Reticulocytes; conditions: reticulocytes
T4 sequence (P12530 whole entry): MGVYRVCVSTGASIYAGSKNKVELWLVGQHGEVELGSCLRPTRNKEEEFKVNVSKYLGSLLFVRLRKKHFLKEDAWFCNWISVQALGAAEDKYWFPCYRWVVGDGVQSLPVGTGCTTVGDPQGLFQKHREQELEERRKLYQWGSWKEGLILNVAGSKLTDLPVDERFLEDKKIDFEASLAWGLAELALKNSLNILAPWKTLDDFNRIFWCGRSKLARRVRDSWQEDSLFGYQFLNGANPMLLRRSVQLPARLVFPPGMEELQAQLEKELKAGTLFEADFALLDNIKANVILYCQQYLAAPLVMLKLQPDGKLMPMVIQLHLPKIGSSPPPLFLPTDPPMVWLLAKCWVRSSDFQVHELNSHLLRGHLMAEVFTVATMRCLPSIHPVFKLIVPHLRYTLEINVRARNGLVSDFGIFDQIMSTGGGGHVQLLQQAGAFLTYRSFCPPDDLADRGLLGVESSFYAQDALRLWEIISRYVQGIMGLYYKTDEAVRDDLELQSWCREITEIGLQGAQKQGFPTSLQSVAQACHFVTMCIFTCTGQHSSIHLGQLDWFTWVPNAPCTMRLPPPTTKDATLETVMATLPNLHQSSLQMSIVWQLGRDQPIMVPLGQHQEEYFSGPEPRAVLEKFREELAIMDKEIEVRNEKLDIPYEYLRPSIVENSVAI

Cannabinoid receptor 1, sequence (P21554 whole entry): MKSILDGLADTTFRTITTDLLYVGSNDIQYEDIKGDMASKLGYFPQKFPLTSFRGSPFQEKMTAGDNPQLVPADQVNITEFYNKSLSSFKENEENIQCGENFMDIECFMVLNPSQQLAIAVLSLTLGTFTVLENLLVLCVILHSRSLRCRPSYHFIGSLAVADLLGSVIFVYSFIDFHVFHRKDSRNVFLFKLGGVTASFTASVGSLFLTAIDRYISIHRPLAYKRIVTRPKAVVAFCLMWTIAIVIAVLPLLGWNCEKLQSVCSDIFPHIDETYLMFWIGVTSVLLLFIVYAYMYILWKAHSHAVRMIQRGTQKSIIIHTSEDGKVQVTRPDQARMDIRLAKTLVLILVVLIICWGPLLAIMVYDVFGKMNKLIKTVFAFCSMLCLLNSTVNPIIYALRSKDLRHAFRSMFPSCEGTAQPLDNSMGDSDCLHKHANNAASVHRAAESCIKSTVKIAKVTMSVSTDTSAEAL
C-C chemokine receptor type 5, sequence (P51681 whole entry): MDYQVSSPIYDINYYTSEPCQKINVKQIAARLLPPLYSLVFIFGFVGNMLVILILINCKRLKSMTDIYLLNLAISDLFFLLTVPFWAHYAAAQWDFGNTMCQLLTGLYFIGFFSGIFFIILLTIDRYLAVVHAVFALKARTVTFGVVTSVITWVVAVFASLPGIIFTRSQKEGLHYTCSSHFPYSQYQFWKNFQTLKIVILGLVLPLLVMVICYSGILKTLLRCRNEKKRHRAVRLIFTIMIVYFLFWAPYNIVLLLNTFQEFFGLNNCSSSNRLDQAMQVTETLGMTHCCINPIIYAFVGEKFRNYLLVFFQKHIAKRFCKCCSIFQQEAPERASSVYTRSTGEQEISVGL

CC(C)[C@H]1CC[C@H](C(=O)N[C@H](Cc2ccccc2)C(=O)O)CC1 [NATEGLINIDE]
Not Active: IC50 [1] | IC50 [2] | Ki [2] | IC50 [3] | IC50 [4] | IC50 (Cannabinoid receptor 1) | IC50 [5] | IC50 [6] | IC50 [7]

CCN[C@@H]1C[C@H](N)[C@@H](O[C@H]2OC(CN)=CC[C@H]2N)[C@H](O)[C@H]1O[C@H]1OC[C@](C)(O)[C@H](NC)[C@H]1O [NETILMICIN]
Not Active: IC50 [1] | IC50 [2] | Ki [2] | IC50 [3] | IC50 [4] | IC50 (Cannabinoid receptor 1) | IC50 [5] | IC50 [6] | IC50 [7]

COC(=O)C1=C(C)NC(C)=C(C(=O)OCC(C)C)C1c1ccccc1[N+](=O)[O-] (centres undefined) [NISOLDIPINE]
Not Active: IC50 [1] | IC50 [2] | Ki [2] | IC50 [3] | IC50 [4] | IC50 (Cannabinoid receptor 1) | IC50 [5] | IC50 [6] | IC50 [7]

CCOC(=O)C1=C(C)NC(C)=C(C(=O)OC)C1c1cccc([N+](=O)[O-])c1 (centres undefined) [NITRENDIPINE]
Not Active: IC50 [1] | IC50 [2] | Ki [2] | IC50 [3] | IC50 [4] | IC50 (Cannabinoid receptor 1) | IC50 [5] | IC50 [6] | IC50 [7]

C#C[C@]1(OC(C)=O)CC[C@H]2[C@@H]3CCC4=CC(=O)CC[C@@H]4[C@H]3CC[C@@]21C [NORETHINDRONE ACETATE]
Not Active: IC50 [1] | IC50 [2] | Ki [2] | IC50 [3] | IC50 [4] | IC50 (Cannabinoid receptor 1) | IC50 [5] | IC50 [6] | IC50 [7]

COc1ccc2[nH]c([S+]([O-])Cc3ncc(C)c(OC)c3C)nc2c1 (centres undefined) [OMEPRAZOLE]
Not Active: IC50 [1] | IC50 [2] | Ki [2] | IC50 [3] | IC50 [4] | IC50 (Cannabinoid receptor 1) | IC50 [5] | IC50 [6] | IC50 [7]

Cc1nccn1CC1CCc2c(c3ccccc3n2C)C1=O (centres undefined) [ONDANSETRON]
Not Active: IC50 [1] | IC50 [2] | Ki [2] | IC50 [3] | IC50 [4] | IC50 (Cannabinoid receptor 1) | IC50 [5] | IC50 [6] | IC50 [7]

CCn1cc(C(=O)O)c(=O)c2cc(F)c(N3CCN(C)CC3)cc21 [PEFLOXACIN]
Not Active: IC50 [1] | IC50 [2] | Ki [2] | IC50 [3] | IC50 [4] | IC50 (Cannabinoid receptor 1) | IC50 [5] | IC50 [6] | IC50 [7]

CCCCOc1ccc(OCCCN2CCOCC2)cc1 [PRAMOXINE]
Not Active: IC50 [1] | IC50 [2] | Ki [2] | IC50 [3] | IC50 [4] | IC50 (Cannabinoid receptor 1) | IC50 [5] | IC50 [6] | IC50 [7]

O=C(C1CCCCC1)N1CC(=O)N2CCc3ccccc3C2C1 (centres undefined) [PRAZIQUANTEL]
Not Active: IC50 [1] | IC50 [2] | Ki [2] | IC50 [3] | IC50 [4] | IC50 (Cannabinoid receptor 1) | IC50 [5] | IC50 [6] | IC50 [7]

CCN(CC)CCOC(=O)c1ccc(N)cc1 [PROCAINE]
Not Active: IC50 [1] | IC50 [2] | Ki [2] | IC50 [3] | IC50 [4] | IC50 (Cannabinoid receptor 1) | IC50 [5] | IC50 [6] | IC50 [7]

CCCN(CCC)C(=O)C(CCC(=O)O)NC(=O)c1ccccc1 (centres undefined) [PROGLUMIDE]
Not Active: IC50 [1] | IC50 [2] | Ki [2] | IC50 [3] | IC50 [4] | IC50 (Cannabinoid receptor 1) | IC50 [5] | IC50 [6] | IC50 [7]

NC(=O)c1cnccn1 [PYRAZINAMIDE]
Not Active: IC50 [1] | IC50 [2] | Ki [2] | IC50 [3] | IC50 [4] | IC50 (Cannabinoid receptor 1) | IC50 [5] | IC50 [6] | IC50 [7]

OC(CCN1CCCCC1)(c1ccccc1)C1CCCCC1 (centres undefined) [TRIHEXYPHENIDYL]
Not Active: IC50 [1] | IC50 [2] | Ki [2] | IC50 [3] | IC50 [4] | IC50 (Cannabinoid receptor 1) | IC50 [5] | IC50 [6] | IC50 [7]

Cc1cc2cc3c(C)cc(=O)oc3c(C)c2o1 [TRIOXSALEN]
Not Active: IC50 [1] | IC50 [2] | Ki [2] | IC50 [3] | IC50 [4] | IC50 (Cannabinoid receptor 1) | IC50 [5] | IC50 [6] | IC50 [7]

CCCC(CCC)C(=O)O [VALPROIC ACID]
Not Active: IC50 [1] | IC50 [2] | Ki [2] | IC50 [3] | IC50 [4] | IC50 (Cannabinoid receptor 1) | IC50 [5] | IC50 [6] | IC50 [7]

CCC1=C[C@@H]2CN(C1)Cc1c([nH]c3ccccc13)[C@@](C(=O)OC)(c1cc3c(cc1OC)N(C)[C@H]1[C@@](O)(C(=O)OC)[C@H](OC(C)=O)[C@]4(CC)C=CCN5CC[C@]31[C@@H]54)C2 [VINORELBINE]
Not Active: IC50 [1] | IC50 [2] | Ki [2] | IC50 [3] | IC50 [4] | IC50 (Cannabinoid receptor 1) | IC50 [5] | IC50 [6] | IC50 [7]

CADMIUM DICHLORIDE
Not Active: IC50 [1] | Ki [1] | IC50 [2] | Ki [2] | IC50 [3] | Ki [3] | IC50 [4] | Ki [4] | IC50 (Cannabinoid receptor 1) | Ki (Cannabinoid receptor 1) | IC50 [5] | Ki [5] | IC50 [6] | Ki [6] | IC50 [7] | Ki [7]
